Measured values reported in article PMC7596534, “Bacterial inducible expression of plant cell wall-binding protein YesO through conflict between Glycine max and saprophytic Bacillus subtilis” (Scientific Reports, 2020).

Biological target: T1, YesO (Bacillus subtilis, UniProt O31518)
T1 construct: primer-encoded N-terminus MTLRIAWWG, native stop codon, no tag apparent
Experiment: X-ray crystallography of the complex, […] Å
Format: binding
Settings: crystallised with 1 mM oligo-RG-I (mostly disaccharide, trisaccharide seen in density); Tris-HCl pH 8.5, 20 C; cleft between N- and C-domains

T1 sequence (O31518 34-427): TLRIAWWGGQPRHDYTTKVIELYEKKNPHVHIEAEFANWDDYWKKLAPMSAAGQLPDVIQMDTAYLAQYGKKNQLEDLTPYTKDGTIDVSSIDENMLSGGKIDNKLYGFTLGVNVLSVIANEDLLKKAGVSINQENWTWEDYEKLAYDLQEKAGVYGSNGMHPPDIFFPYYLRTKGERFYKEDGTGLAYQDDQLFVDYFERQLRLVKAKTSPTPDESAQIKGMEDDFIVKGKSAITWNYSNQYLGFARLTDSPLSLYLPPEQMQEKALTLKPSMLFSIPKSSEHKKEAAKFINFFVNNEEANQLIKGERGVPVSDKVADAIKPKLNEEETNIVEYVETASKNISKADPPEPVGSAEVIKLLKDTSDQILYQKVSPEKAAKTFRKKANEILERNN

## C[C@@H]1OC(O)[C@H](O[C@H]2OC(C(=O)O)=C[C@H](O)[C@H]2O)[C@H](O)[C@H]1O[C@@H]1O[C@H](CO)[C@H](O)[C@H](O)[C@H]1O (stereo partly shown) [ΔGalUA-Rha-Gal]
  X-ray crystallography of the complex, 1.58 Å: X-ray crystallography of YesO/oligo-RG-I indicated an interaction between YesO and the trisaccharide, ΔGalUA-Rha-Gal
